# Results: article PMC6386942, “Bisoprolol, Known to Be a Selective β1-Receptor Antagonist, Differentially but Directly Suppresses IK(M) and IK(erg) in Pituitary Cells and Hippocampal Neurons” (International Journal of Molecular Sciences, 2019)
# Experiments:
# [1] = target: T1, erg-mediated K+ channel (Kerg, KV11) (Rattus norvegicus, UniProt O08962); test: whole-cell patch clamp of native IK(erg) in GH3 cells; format: cell-based
# T1 construct: gene Kcnh2; native channel in pituitary GH3 cells
# T1 sequence (O08962 1-1163): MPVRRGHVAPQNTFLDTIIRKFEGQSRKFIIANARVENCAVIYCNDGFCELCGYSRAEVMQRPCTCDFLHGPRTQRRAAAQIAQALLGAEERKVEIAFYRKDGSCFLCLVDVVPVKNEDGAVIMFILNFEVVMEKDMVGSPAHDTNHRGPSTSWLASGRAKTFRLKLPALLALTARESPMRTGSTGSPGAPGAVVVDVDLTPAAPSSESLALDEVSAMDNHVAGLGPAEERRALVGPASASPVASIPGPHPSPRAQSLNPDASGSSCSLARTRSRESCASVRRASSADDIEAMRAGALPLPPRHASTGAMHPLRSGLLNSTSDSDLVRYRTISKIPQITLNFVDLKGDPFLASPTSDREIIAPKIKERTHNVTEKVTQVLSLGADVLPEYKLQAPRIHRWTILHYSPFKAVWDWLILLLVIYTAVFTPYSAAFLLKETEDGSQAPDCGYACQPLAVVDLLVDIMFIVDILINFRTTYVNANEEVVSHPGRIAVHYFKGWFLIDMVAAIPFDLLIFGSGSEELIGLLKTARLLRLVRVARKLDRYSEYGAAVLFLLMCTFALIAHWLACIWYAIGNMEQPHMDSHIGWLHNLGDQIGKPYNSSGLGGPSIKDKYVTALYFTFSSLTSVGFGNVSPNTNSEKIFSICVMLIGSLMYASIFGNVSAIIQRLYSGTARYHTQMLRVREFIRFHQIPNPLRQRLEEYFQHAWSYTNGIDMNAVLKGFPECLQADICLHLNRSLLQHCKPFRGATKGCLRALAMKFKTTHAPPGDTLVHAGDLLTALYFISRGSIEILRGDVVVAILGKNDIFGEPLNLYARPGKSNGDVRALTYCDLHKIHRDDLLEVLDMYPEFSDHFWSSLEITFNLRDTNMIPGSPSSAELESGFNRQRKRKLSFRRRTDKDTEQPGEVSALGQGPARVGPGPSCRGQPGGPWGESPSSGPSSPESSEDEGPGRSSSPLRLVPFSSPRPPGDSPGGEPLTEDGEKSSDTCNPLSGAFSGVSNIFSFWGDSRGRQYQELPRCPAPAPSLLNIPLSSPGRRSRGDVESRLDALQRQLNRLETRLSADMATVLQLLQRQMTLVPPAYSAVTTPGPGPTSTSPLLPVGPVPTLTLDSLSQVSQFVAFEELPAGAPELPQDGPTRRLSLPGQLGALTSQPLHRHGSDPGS
# [2] = target: T2, M-type K+ (KM) channel, KCNQ2 (KV7.2)/KCNQ3 (KV7.3) (Rattus norvegicus, UniProt O88943+O88944); test: whole-cell patch clamp of native IK(M), plus cell-attached single KM channel recordings in GH3 cells; format: cell-based
# T2 construct: native channel in pituitary GH3 cells; with KCNQ3 (KV7.3)
# T2 sequence (O88943 whole entry): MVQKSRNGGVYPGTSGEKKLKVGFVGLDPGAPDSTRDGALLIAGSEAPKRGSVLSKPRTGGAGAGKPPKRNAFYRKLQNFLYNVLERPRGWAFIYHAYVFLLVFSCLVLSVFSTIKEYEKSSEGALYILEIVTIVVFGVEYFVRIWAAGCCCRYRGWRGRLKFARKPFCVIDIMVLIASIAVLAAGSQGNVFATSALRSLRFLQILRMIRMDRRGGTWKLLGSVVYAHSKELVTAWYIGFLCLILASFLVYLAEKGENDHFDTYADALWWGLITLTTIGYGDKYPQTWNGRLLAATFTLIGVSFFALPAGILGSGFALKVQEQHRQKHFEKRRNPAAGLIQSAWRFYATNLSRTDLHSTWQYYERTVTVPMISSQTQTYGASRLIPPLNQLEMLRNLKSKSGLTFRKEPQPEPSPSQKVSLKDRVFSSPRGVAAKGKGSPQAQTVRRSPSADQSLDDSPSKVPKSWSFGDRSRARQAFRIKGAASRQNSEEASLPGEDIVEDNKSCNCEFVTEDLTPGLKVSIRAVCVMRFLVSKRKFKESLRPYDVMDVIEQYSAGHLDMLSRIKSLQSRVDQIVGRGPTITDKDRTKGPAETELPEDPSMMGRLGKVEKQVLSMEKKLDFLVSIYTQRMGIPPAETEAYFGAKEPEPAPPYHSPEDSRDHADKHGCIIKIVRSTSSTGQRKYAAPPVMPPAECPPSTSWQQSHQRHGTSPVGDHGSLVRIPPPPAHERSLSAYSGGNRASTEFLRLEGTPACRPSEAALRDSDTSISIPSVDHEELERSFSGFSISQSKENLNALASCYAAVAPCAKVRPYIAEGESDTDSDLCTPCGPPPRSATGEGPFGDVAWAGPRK
# T2 sequence (O88944 whole entry): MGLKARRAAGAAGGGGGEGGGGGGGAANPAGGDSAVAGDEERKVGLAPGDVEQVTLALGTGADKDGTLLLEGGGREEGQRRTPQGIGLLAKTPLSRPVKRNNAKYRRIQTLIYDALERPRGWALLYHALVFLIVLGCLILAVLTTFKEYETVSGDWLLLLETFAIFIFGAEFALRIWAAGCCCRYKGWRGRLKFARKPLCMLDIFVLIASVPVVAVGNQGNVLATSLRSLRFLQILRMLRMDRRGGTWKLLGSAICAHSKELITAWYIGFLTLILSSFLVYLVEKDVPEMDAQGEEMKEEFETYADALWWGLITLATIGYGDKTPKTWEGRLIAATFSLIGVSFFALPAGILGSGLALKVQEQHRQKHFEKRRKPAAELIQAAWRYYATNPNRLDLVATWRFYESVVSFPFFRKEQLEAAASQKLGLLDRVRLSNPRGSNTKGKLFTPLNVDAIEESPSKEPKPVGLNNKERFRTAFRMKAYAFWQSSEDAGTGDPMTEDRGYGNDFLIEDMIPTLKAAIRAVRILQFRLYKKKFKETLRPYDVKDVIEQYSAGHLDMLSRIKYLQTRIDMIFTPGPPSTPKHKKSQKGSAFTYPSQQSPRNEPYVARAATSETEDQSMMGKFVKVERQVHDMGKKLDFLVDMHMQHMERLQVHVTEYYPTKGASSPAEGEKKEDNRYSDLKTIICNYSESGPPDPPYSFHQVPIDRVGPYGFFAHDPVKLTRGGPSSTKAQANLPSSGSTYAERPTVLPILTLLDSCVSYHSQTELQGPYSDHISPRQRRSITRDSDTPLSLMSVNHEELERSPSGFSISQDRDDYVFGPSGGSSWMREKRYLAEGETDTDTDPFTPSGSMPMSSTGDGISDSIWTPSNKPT
smiles,measurement,setting,value
"CC(C)NCC(O)COc1ccc(COCCOC(C)C)cc1 (racemic) [BIS, 1-(propan-2-ylamino)-3-[4-(2-propan-2-yloxyethoxymethyl)phenoxy]propan-2-ol]",IC50,[1],6.42 µM
same,IC50,[2],1.21 µM
